Experimental data taken from PubChem BioAssay (NCI).
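The compound was tested at five concentrations on cells cultured in 96-well plates, with a 48-hour exposure period. Abbreviation: GI50, concentration required for 50% inhibition of growth. The concentration for full growth arrest is given as TGI.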

What was measured:
Test in all cases: NCI tumour cell line growth inhibition, 48 h
MDA-MB-435 = system: MDA-MB-435
M14 melanoma = system: M14 melanoma
SN12C renal = system: SN12C renal
BT-549 breast = system: BT-549 breast
HL-60(TB) leukemia = system: HL-60(TB) leukemia
CAKI-1 renal = system: CAKI-1 renal
CCRF-CEM leukemia = system: CCRF-CEM leukemia
SK-OV-3 ovarian = system: SK-OV-3 ovarian
SK-MEL-2 melanoma = system: SK-MEL-2 melanoma
HCT-15 colon = system: HCT-15 colon
MALME-3M melanoma = system: MALME-3M melanoma
SNB-19 CNS = system: SNB-19 CNS
ACHN renal = system: ACHN renal
SK-MEL-5 melanoma = system: SK-MEL-5 melanoma
TK-10 renal = system: TK-10 renal
UACC-62 melanoma = system: UACC-62 melanoma
MOLT-4 leukemia = system: MOLT-4 leukemia
EKVX NSCLC = system: EKVX NSCLC
SW-620 colon = system: SW-620 colon
HOP-62 NSCLC = system: HOP-62 NSCLC
MDA-MB-231 breast = system: MDA-MB-231 breast
SR leukemia = system: SR leukemia
OVCAR-4 ovarian = system: OVCAR-4 ovarian
HCC-2998 colon = system: HCC-2998 colon
T-47D breast = system: T-47D breast
786-0 renal = system: 786-0 renal
PC-3 prostate = system: PC-3 prostate
OVCAR-5 ovarian = system: OVCAR-5 ovarian
A498 renal = system: A498 renal
NCI/ADR-RES ovarian = system: NCI/ADR-RES ovarian

COc1ccc(C#Cc2ccc(=O)oc2-c2cc(OC)c(OC)c(OC)c2)cc1O
TGI (MDA-MB-435): 2.78 µM
GI50 (M14 melanoma): 4.33 µM
TGI (M14 melanoma): > 51.6 µM
GI50 (SN12C renal): 20.7 µM
TGI (SN12C renal): > 100 µM
GI50 (BT-549 breast): 7.37 µM
TGI (BT-549 breast): > 64.2 µM
GI50 (HL-60(TB) leukemia): 2.13 µM
TGI (HL-60(TB) leukemia): 17.4 µM
GI50 (CAKI-1 renal): 7.6 µM
TGI (CAKI-1 renal): > 100 µM
GI50 (CCRF-CEM leukemia): 6.95 µM
TGI (CCRF-CEM leukemia): > 100 µM
GI50 (SK-OV-3 ovarian): 6.58 µM
TGI (SK-OV-3 ovarian): > 83.1 µM
GI50 (SK-MEL-2 melanoma): 6.74 µM
TGI (SK-MEL-2 melanoma): > 100 µM
GI50 (HCT-15 colon): 2.86 µM
TGI (HCT-15 colon): > 100 µM
GI50 (MALME-3M melanoma): 10.2 µM
TGI (MALME-3M melanoma): > 83.7 µM
GI50 (SNB-19 CNS): 18 µM
TGI (SNB-19 CNS): > 100 µM
GI50 (ACHN renal): 17.2 µM
TGI (ACHN renal): > 100 µM
GI50 (SK-MEL-5 melanoma): 0.654 µM
TGI (SK-MEL-5 melanoma): > 46.1 µM
GI50 (TK-10 renal): 21.8 µM
TGI (TK-10 renal): > 100 µM
GI50 (UACC-62 melanoma): 5.53 µM
TGI (UACC-62 melanoma): > 100 µM
GI50 (MOLT-4 leukemia): 6.3 µM
TGI (MOLT-4 leukemia): > 100 µM
GI50 (EKVX NSCLC): 22.2 µM
TGI (EKVX NSCLC): > 100 µM
GI50 (SW-620 colon): 1.22 µM
TGI (SW-620 colon): > 100 µM
GI50 (HOP-62 NSCLC): 5.12 µM
TGI (HOP-62 NSCLC): > 64.6 µM
GI50 (MDA-MB-231 breast): 6.25 µM
TGI (MDA-MB-231 breast): > 100 µM
GI50 (SR leukemia): 0.225 µM
TGI (SR leukemia): 18.7 µM
GI50 (OVCAR-4 ovarian): 20.3 µM
TGI (OVCAR-4 ovarian): > 100 µM
GI50 (HCC-2998 colon): 3.36 µM
TGI (HCC-2998 colon): 44 µM
TGI (T-47D breast): > 100 µM
GI50 (786-0 renal): 5.49 µM
TGI (786-0 renal): > 33.2 µM
GI50 (PC-3 prostate): 8.22 µM
TGI (PC-3 prostate): > 100 µM
GI50 (OVCAR-5 ovarian): 24 µM
TGI (OVCAR-5 ovarian): > 100 µM
GI50 (A498 renal): 10.1 µM
TGI (A498 renal): > 83.1 µM
GI50 (NCI/ADR-RES ovarian): 2.6 µM
TGI (NCI/ADR-RES ovarian): > 40.6 µM
